Assay: Physical and chemical properties: solubility
Assay type: physicochemical
Conditions: in water, methanol, DMSO
Description: The physical and chemical properties, hydrogen spectrum and mass spectrometry detection data of each compound are as follows:
It is calculated by a HR-ESI-MS [m/z 225.1406, calculated value being 225.1465] that a molecular weight of the compound is 202, a molecular formula is C12H14N2O, and a degree of unsaturation is 7.
It is calculated by the HR-ESI-MS [m/z 225.1406, calculated value being 225.1465] that a molecular weight of the compound is 202, a molecular formula is C12H14N2O, and a degree of unsaturation is 7.

| Compound | solubility |
| --- | --- |
| C[C@H]1N[C@@H](O)Cc2c1[nH]c1ccccc21 [Compound 2, Noni alkaloid D] | easily soluble in water, methanol, DMSO |
| C[C@H]1N[C@H](O)Cc2c1[nH]c1ccccc21 [Compound 1, Noni alkaloid C] | easily soluble in water, methanol, DMSO |
